Laboratory results published in patent US10548894B2, “Combination therapy” (Array BioPharma Inc., priority 2013, dated 2020).

How the values were obtained:
[1] = system: A-375 cells expressing mutant NRASQ61K; assay: ATP-based CTG (Cell Titer Glo) cell viability assay, 72 h; conditions: Homo sapiens, A-375 NRASQ61K, single agent
Procedure: (§1) Compound stocks are prepared in DMSO at a final concentration of 10 mM. Working stocks are serially diluted in the appropriate cell culture medium in 3-fold increments to achieve final assay concentrations ranging from 2.7 μM to 1.2 nM.
(§2) A-375 and WM-266-4 cells were purchased from American Type Culture Collection (ATCC). The A-375 cells were cultured in DMEM medium (ATCC) and the WM-266-4 cells were cultured in EMEM medium (ATCC) both supplemented with 10% fetal bovine serum (Gibco) and incubated at 37° C./5% CO2. The cell lines engineered to express commonly occurring alleles indicative of resistance were acquired from Novartis-Emeryville. These resistant models include, A-375 cells expressing mutant MEK1P124L, truncated p61-BRAFV600E, or mutant NRASQ61K, and WM-266-4 cells expressing mutant MEK1C121S, truncated p61-BRAFV600E, or mutant NRASQ61K. These cells were cultured in the appropriate parental medium with selection marker G418 and in the presence of 5 uM LFE158 (MEK mutants) or LIH720 (truncated p61-BRAFV600E).
(§3) For screening, cells were seeded in 80 ul of medium in 384-well plates (Thermo Scientific, cat#4332) at 500 (A-375) or 750 (WM-266-4) cell densities per well using a MultiDrop Combi (Thermo-Fisher) with an 8-channel standard cassette. To promote an even distribution of cells across the entire well, cells were briefly centrifuged at 1000 RPM and incubated at room temperature 30 minutes. All plates were incubated at 37° C., 5% CO2 for 24 h prior to compound addition. Compound stock was freshly prepared in the appropriate culture medium, and added using a PAA robot equipped with a 200n1 pin tool. In a minimum of three replicate wells, single agent and combination effects after 72 hours, were assessed by both quantification of cellular ATP levels via Cell Titer Glo (Promega) according to the manufacturer's protocol and by microscopy imaging. For imaging, cells were fixed to the plates and permeabilized with a solution of 10% PFA, 0.3% TX-100 in PBS via a WellMate dispenser with controlled dispensing speeds. Cell nuclei were stained with Hoechst 33342 (H3570, Invitrogen), and all necessary washing steps were performed by a BioTek washer.
(§4) Data comprised triplicate measurements for each treatment (compound) condition, 42 replicates of DMSO-treated wells, and duplicates of Staurosporin-treated wells. The data was normalized to the median of the DMSO measurements and summarized by calculating the median of the triplicates. Data was imported into Chalice to calculate compound synergies.

[2] = system: A-375 cells expressing mutant MEK1P124L; assay: as above; conditions: Homo sapiens, A-375 MEK1P124L, single agent
Procedure: as §1, §2, §3, §4

A-375 cells [3] = assay: as above; conditions: Homo sapiens, A-375 parent, single agent
Procedure: as §1, §2, §3, §4

[4] = system: WM-266-4 cells expressing mutant MEK1C121S; assay: as above; conditions: Homo sapiens, WM-266-4 MEK1C121S, single agent
Procedure: as §1, §2, §3, §4

WM-266-4 cells [5] = assay: as above; conditions: Homo sapiens, WM-266-4 parent, single agent
Procedure: as §1, §2, §3, §4

[6] = system: A-375 cells expressing mutant NRASQ61K; assay: Microscopy imaging assay (viable nuclei count), 72 h; type: cell-based; conditions: Homo sapiens, A-375 NRASQ61K, single agent
Procedure: as §1, §2, §3
(§5) An automated image analysis pipeline was established using custom-made scripts in the open-source, statistical programming language R, and functions of the BioConductor package EBImage. The goal was to quantify the number of viable nuclei (cells) per well as an approximation for cell viability. The pipeline was comprised of seven steps: (I.) smoothing of the image to reduce the number of intensity peaks, (II.) application of a thresholding function to separate the foreground (signal) from the background (noise), (III.) identification of local maxima in the foreground that serve as seeds for the nuclei, (IV.) filtering of local maxima in close proximity, (V.) propagation of the nuclei from remaining local maxima, (VI.) and extraction of object features from the propagated nuclei (numbers of nuclei, size features and intensity features). As a last step (VII.), to exclude debris (e.g. fragmented nuclei) from counting, objects identified in DMSO- and Staurosporin-treated wells were used to obtain feature distributions for viable and fragmented nuclei, respectively. These were used to set cut-offs differentiating between viable and fragmented nuclei. The number of fragmented nuclei was subtracted from the total number of identified objects and the result was reported as final count for that well.
as §4

[7] = system: A-375 cells expressing mutant MEK1P124L; assay: as above; type: cell-based; conditions: Homo sapiens, A-375 MEK1P124L, single agent
Procedure: as §1, §2, §3, §5, §4

A-375 cells [8] = assay: as above; type: cell-based; conditions: Homo sapiens, A-375 parent, single agent
Procedure: as §1, §2, §3, §5, §4

[9] = system: WM-266-4 cells expressing mutant MEK1C121S; assay: as above; type: cell-based; conditions: Homo sapiens, WM-266-4 MEK1C121S, single agent
Procedure: as §1, §2, §3, §5, §4

WM-266-4 cells [10] = assay: as above; type: cell-based; conditions: Homo sapiens, WM-266-4 parent, single agent
Procedure: as §1, §2, §3, §5, §4

[11] = Clinical dose finding and tolerability (RP2D/MTD) in patients; type: in vivo; conditions: for MTD: QD
Text: The selection of the starting dose follows the ICH S9 guidelines for choosing a starting a dose for a first-in-human trial conducted in patients with cancer, and is shown in Table 6-2.
Table 3 describes the starting doses and the provisional dose levels of study treatments for the combinations that may be evaluated during this trial. Additional dose levels not currently specified may be enrolled and additional patients may be enrolled at a dose level already tested if such changes are deemed necessary to provide optimal safety and tolerability, pharmacokinetic, and pharmacodynamic data.

[12] = system: HMEX1906 primary melanoma model (HMEX1906-R5); assay: Efficacy in HMEX1906-R5 primary melanoma model resistant to Compound of Formula (I); type: in vivo; conditions: PO; Compound C 250 mg/kg qd×21; Compound of Formula (I) 5 mg/kg bid×21
Procedure: Objective: To evaluate the efficacy of the combination of the Compound of Formula (I) and the CDK 4 inhibitor Compound C in the HMEX1906 primary melanoma model that is grown in the presence of and is resistant to 5 mg/kg the Compound of Formula (I) (HMEX1906-R5)
Drug formulation: Compound C is formulated in 0.5% MC/0.5% Tween80 and the Compound of Formula (I) is formulated in 20% PEG300/3% ETPGS.
Tumors are chopped/minced into cell line like suspension (tumors homogenized). 7 mL of matrigel added and 1.5 mL of HBSS. Suspension warmed in palm until Matrigel is thick and implanted with a 18G needle s.c right flank of female nude mice.
The mice were assigned to the following groups at 18 days post implant with an average tumor volume of 266 mm^3 and average body weight of 25 grams.
Groups: 10 mice/group, route PO, dose volume 0.2 mL
Group 1: Vehicle, 0 mg/kg bid×14
Group 2: Compound C, 250 mg/kg qd×21
Group 3: Compound of Formula (I), 5 mg/kg bid×21
Group 4: Compound C 250 mg/kg qd×21+Compound of Formula (I) 5 mg/kg bid×21

SK-MEL-5 = assay: xCELLigence real-time impedance growth assay; type: cell-based; conditions: SK-MEL-5, absence of FGF2; Formula (I) 100 nM, Compound H 1 uM
Procedure: (§6) Shown is the growth in real time of the (Top A) COLO 741 and (Bottom B) SK-MEL-5 cell lines as measured using the xCELLigence impedance-based cell analyzer as discussed in Example 5. Where indicated FGF2 and Compound H were supplemented to the media at concentrations of 100 ng/ml, and 1 uM, respectively. The Compound of Formula (I) was used at 500 nM in (A) and 100 nM (B).
(§7) For CellTiter-Glo™ assays, cells were dispensed into tissue culture treated 96-well plates (Costar, catalog number 3904) with a final volume of 80 μL of medium and at density of 3000 cells per well. 12 to 24 hrs after plating, 20 μL of each compound dilution series were transferred to plates containing the cells, resulting in compound concentration ranges of 2700 nM to 3.7 nM by 3-fold dilutions and a final DMSO concentration of 0.16%. The total volume in each well was […]. Plates were incubated for 72 hrs and the effects of compounds on cell proliferation was determined using the CellTiter-Glo™ Luminescent Cell Viability Assay (CTG, Promega) and a Victor™ X4 plate reader (Perkin Elmer). For real-time growth assays cells were seeded into xCELLigence E-plates (Roche catalogue number 05232368001) at a density of 4000 cells per well in a total of 90 μl of media and 24 hrs after plating, 11 μl of media with or without compound was added to the wells. 2-4 replicate wells were plated for all cell lines and treatment groups with the exception of LGX818+FGF2 treated COLO 741 cells (N=1). Where indicated final concentrations of compounds and growth factor were 1 uM for Compound H, 100 ng/ml for FGF2, and either 100 nM (SK-MEL-5) or 500 nM (COLO 741) for the Compound of Formula (I). Cells were continuously monitored every two hours for seven days with the xCELLigence real-time impedance based cell analyzer. Impedance was measured using the electrodes on the E-plates, with increasing surface area coverage of cells creating greater electrode impedance. […] In all cases cell index values were normalized to a timepoint immediately following the addition of compound.
(§8) To determine whether rescue of BRAFV600E melanoma cell lines by FGF2 was dependent on FGFR signaling, we examined whether the selective FGFR inhibitor Compound H could prevent FGF2-mediated rescue. Two cell lines which were rescued to varying degrees by FGF2 (COLO 741, and SK-MEL-5, Table 8-1) were cultured in media containing the Compound of Formula (I) and FGF2 either in the presence or absence of Compound H and growth measured in real time.

COLO 741 = assay: xCELLigence real-time impedance growth assay; type: cell-based; conditions: COLO 741, absence of FGF2; Formula (I) 500 nM, Compound H 1 uM
Procedure: as §6, §7, §8

[13] = system: MAPK and PIK3C signaling in COLO 741 cells; assay: Western analysis of phosphorylated MEK1/2, ERK1/2 and AKT; type: cell-based; conditions: COLO 741, 2 and 24 hours, no FGF2; Formula (I) 100 nM, Compound H 1.0 uM
Procedure: (§9) FIG. 4—The effect on signaling of combining the Compound of Formula (I) with the FGFR inhibitor Compound H and the FGFR ligand FGF2 in two BRAFV600E mutant melanoma-derived cell lines in vitro. Shown is western analysis of both phosphorylated and total AKT, ERK1/2, and MEK1/2 proteins isolated from (A) […] and (B) SK-MEL-5 cells following treatment with the Compound of Formula (I) (100 nM), FGF2 (100 ng/ml), and Compound H (1 uM). Cells were treated for 2 and 24 hours with agents singly and in combination as discussed in Example 5.
(§10) For Western analysis, cells were plated in 6-well (Costar, catalog number 3506) plates at a density of 5×10^5 cells per well in 2.0 ml of complete culture medium. Twelve to 24 hrs after plating, cells were treated with the various compounds, and in all experiments the Compound of Formula (I), Compound H, and FGF2 were used at final concentrations of 100 nM, 1.0 uM, and 100 ng/ml, respectively. Cells were harvested 2, and 24 hrs following the addition of compound in freshly prepared cell lysis buffer (Cell Signaling Technology Catalog number 9803); supplemented with both phosphatase (PhosStop, Roche Catalog number 04906845001) and protease inhibitors (Roche, catalog number 11697498001). Proteins from cell lysates were separated by electrophoresis though a NuPAGE 4-12% Bis-Tis midi gel (Novex, catalog number WG1402BX10), transferred to nitrocellulose membranes, which were subsequently incubated with antibodies from Cell Signaling Technology (Danvers, Mass., USA) recognizing p-AKT (S473, Catalog number 4058), total AKT (Catalog number 2920), p-ERK1/2 (T202/Y204, catalog number 9101), total ERK1/2 (catalog number 9107), p-MEK1/2 (S217/221, catalog number 9121) and β-actin (Ambion, catalog number AM4302). Western blots were visualized following incubation with IRDye 680RD Goat anti-Rabbit IgG (Li-Cor, Catalog number 926-68071) and IRDye 800 CW Goat anti-Mouse IgG (Li-Cor, Catalog number 926-32210) and scanning with an Odyssey Infrared Imager System (Li-Cor, Lincoln, Nebr., USA).
(§11) To investigate whether either restored MAPK or activated PIK3C signaling might underlie FGF2-mediated rescue the effects of FGF2 on MAPK and PIK3C signaling were examined via western-blot analysis of phosphorylated MEK1/2 (MAP2K1/2), ERK1/2 (MAPK1/2) and AKT1/2/3.

[14] = system: MAPK and PIK3C signaling in SK-MEL-5 cells; assay: as above; type: cell-based; conditions: SK-MEL-5, 2 and 24 hours, no FGF2; Formula (I) 100 nM, Compound H 1.0 uM
Procedure: as §9, §10, §11

## Cn1cnc2c(F)c(Nc3ccc(Br)cc3F)c(C(=O)NOCCO)cc21 [Compound B]
[1]
  IC50: 0.206 µM
[2]
  IC50: > 2.7 µM
A-375 cells [3]
  IC50: 0.051 µM
[4]
  IC50: 0.821 µM
WM-266-4 cells [5]
  IC50: 0.05 µM
[6]
  IC50: 0.15 µM
[7]
  IC50: > 2.7 µM
A-375 cells [8]
  IC50: 0.057 µM
[9]
  IC50: 1.21 µM
WM-266-4 cells [10]
  IC50: 0.077 µM
[11]; BID, in combination with B-Raf inhibitor of Formula (I) 600 mg
  RP2D: 45 mg

## CN(C)C(=O)c1cc2cnc(Nc3ccc(N4CCNCC4)cn3)nc2n1C1CCCC1 [Compound C]
[12]
  Mean change of body weight: 5.3 ± 1.4 % ± SEM
  Mean change of tumor volume: 86 ± 26 mm3 ± SEM
  Mean change of tumor volume vs control (T/C): 4%
  Survival (Survivors/Total): 10/10
[11]; currently tested at the 900 mg QD dose level
  maximum tolerated dose (MTD): has not been achieved

## Nc1cc(C(F)(F)F)c(-c2cc(N3CCOCC3)nc(N3CCOCC3)n2)cn1 [Compound F, 5-(2,6-di-morpholin-4-yl-pyrimidin-4-yl)-4-trifluoromethyl-pyridin-2-ylamine]
[11]
  MTD: 100 mg

## CCN1CCN(c2ccc(Nc3cc(N(C)C(=O)Nc4c(Cl)c(OC)cc(OC)c4Cl)ncn3)cc2)CC1 [Compound H]
SK-MEL-5
  growth in real time (cell index): did not affect the proliferation
COLO 741
  growth in real time (cell index): did not affect the proliferation
[11]
  MTD: 125 mg
[13]
  MAPK signaling (phosphorylated MEK and ERK levels): neither FGF2 nor Compound H when added as single agents affected signaling
[14]
  MAPK signaling (phosphorylated MEK and ERK levels): neither FGF2 nor Compound H when added as single agents affected signaling
